# Test system: Klebsiella pneumoniae K66-45 (NDM-1)
# Assay: Checkerboard MIC, fixed ratio of sBLI to antibiotic (Examples 3-6)
# Assay type: cell-based
# Details: caMHB 29.4 μM Zn2+
# From the text: The antibiotics and serine β-lactamase-inhibitors (sBLIs) were purchased from the following suppliers: Ceftazidime (CAZ): Sigma-Aldrich; Cefepime (FEP): Sigma-Aldrich; Cefpodoxime (CEFP): MedChemExpress; Sulbactam (SUL): Sigma-Aldrich Avibactam (AVI): Biosynth; Vaborbactam (VAB): ABCR; Tazobactam (TAZ): Sigma-Aldrich; Taniborbactam (TAN): Sigma-Aldrich.
# In each of Examples 3-23, the compound of Example 26 of WO 2018/033719 was employed as the zinc chelator. The following abbreviations are used in these examples: sBLI means serine-β-lactamase inhibitor; CFU means colony-forming unit, which is a group of microbes that grows from a single cell on a petri plate; DMSO means dimethyl sulfoxide; MHB means Mueller-Hinton broth; caMHB means cation-adjusted Mueller-Hinton broth; MIC means minimum inhibitory concentration—the lower the MIC, the more efficient the combination against the respective bacterial strain.
# General Protocol Used in Examples 3-10 Employing a Fixed Ratio of sBLI to Antibiotic within Each Experiment:
# Antimicrobial susceptibility testing (AST) by broth microdilution (MIC determination) was performed according to The European Committee on Antimicrobial Susceptibility Testing (EUCAST) guidelines (see Reading guide for broth microdilution Version 5.0, 2024: https://www.eucast.org).
# Sterile clear round bottom polystyrene (non-treated) 96-well microplates (Corning 3788) were used for making serial two-fold dilutions of the antibiotic and the serine sBLI in cation-adjusted Mueller Hinton II broth (caMHB; Thermo Scientific, T3462, containing 29.4 μM Zn^2+), across the columns of the microtiter plate ([…]; columns 1-12). The checkerboard plates were all made by keeping the sBLI at a fixed ratio relative to antibiotic (absolute concentrations of each, in μg/mL) to all wells containing sample in each plate. Additionally, a set of samples were included in each test plate, where the zinc chelator was added, at various fixed concentrations, of 16 μg/mL, 8 μg/mL and/or 4 μg/mL (as specified in each Example). All sample wells contained growth medium (caMHB), and inoculated bacteria at a final inoculum between 3-7×10^5 CFU/mL. […] Synergy for the triple combination (antibiotic, sBLI, and zinc chelator) was defined as when the MIC in rows containing the zinc chelator in combination with antibiotic and sBLI (triple combination), was lower than for rows containing antibiotic and sBLI (double combination; no zinc chelator).
# (§1) Two technical replicates were performed for each sample. An X in rows 1-8 in the table indicates bacterial growth, while a blank cell indicates no growth. Concentrations (μg/mL) of CAZ are given in row 0a. Concentrations (μg/mL) of AVI are given in row 0b. The zinc chelator was added in fixed concentrations, at 16 μg/mL in rows 3 and 4, at 8 μg/mL in rows 5 and 6, and 4 μg/mL in rows 7 and 8. As a control, the effect of CAZ and AVI (no zinc chelator) was tested (rows 1 and 2). All wells contained bacterial growth medium (caMHB, 29.4 μM Zn^2+) and were inoculated with the test bacterium. The grey cells indicate the CAZ MIC.
# as §1, with “FEP” for “CAZ”
# Two technical replicates were performed for each sample. An X in rows 1-8 in the table indicates bacterial growth, while a blank cell indicates no growth. Concentrations (μg/mL) of FEP are given in row 0a. Concentrations (μg/mL) of SUL are given in row 0b. […]
structure (smiles),measurement,setting,value
CN(C[C@H](O)[C@@H](O)[C@H](O)[C@H](O)CO)C(=O)c1ccc(CN(Cc2ccccn2)Cc2ccccn2)nc1 [zinc chelator],synergy with the zinc chelator,"zinc chelator 4 μg/mL, with CAZ and AVI (fixed ratio)",variable synergy
same,synergy with the zinc chelator,"zinc chelator 4 μg/mL, with FEP and AVI (fixed ratio)",variable synergy
same,synergy with the zinc chelator,"zinc chelator 8 μg/mL, with CAZ and AVI (fixed ratio)",Synergy
same,synergy with the zinc chelator,"zinc chelator 8 μg/mL, with FEP and AVI (fixed ratio)",Synergy
same,synergy with the zinc chelator,"zinc chelator 8 μg/mL, with FEP and SUL (fixed ratio)",Synergy
same,synergy with the zinc chelator,"zinc chelator 8 μg/mL, with FEP and TAZ (fixed ratio)",Synergy
same,synergy with the zinc chelator,"zinc chelator 16 μg/mL, with CAZ and AVI (fixed ratio)",Synergy
same,synergy with the zinc chelator,"zinc chelator 16 μg/mL, with FEP and AVI (fixed ratio)",Synergy
same,synergy with the zinc chelator,"zinc chelator 16 μg/mL, with FEP and SUL (fixed ratio)",Synergy
same,synergy with the zinc chelator,"zinc chelator 16 μg/mL, with FEP and TAZ (fixed ratio)",Synergy

# Source: patent publication US20260325538A1, “THERAPY” (priority 2023, published 2026)
